Assay results reported in PMC6151740, “Pharmacokinetics, Tissue Distribution, and Elimination of Three Active Alkaloids in Rats after Oral Administration of the Effective Fraction of Alkaloids from Ramulus Mori, an Innovative Hypoglycemic Agent” (Molecules : A Journal of Synthetic Chemistry and Natural …, 2017).
Read-outs that look alike come from different tables or passages of the source.

Experiments:
[1] = Plasma pharmacokinetic study in rats after oral and intravenous administration of SZ–A or purified DNJ; assay type: in vivo, rat; details: for MRT last: read-out: MRT0–t; for MRT inf: read-out: MRT0–∞; for bioavailability: plasma, read-out: F (oral absolute bioavailability)
Experimental: The oral dosing solutions used for all animal studies were prepared by dissolving in water. Thirty rats weighed 250–270 g after acclimation were randomly divided into six groups of five animals each. For oral administration, rats were treated with SZ–A (40, 200, 1000 mg/kg) or purified DNJ (15 mg/kg) dissolve in water. Blood samples (about 0.25 mL) were collected via the postorbital venous plexus veins under ether anesthesia into heparinized polythene tubes before dosing and at 0.08, 0.17, 0.33, 0.50, 1, 2, 3, 4, 6, 8, 12, 24 and 36 h after drug administration. For intravenous dosing, rats were given SZ–A (4 mg/kg) or DNJ (1.5 mg/kg) dissolved in normal saline solution through the tail vein. Then blood samples were collected at 0.03, 0.08, 0.17, 0.33, 0.67, 1, 2, 4, 6, 8, 12, 24, and 36 h under similar conditions. Considering the physical limit of blood in rats, during the process of the pharmacokinetic experiment, each rat was received 0.25 mL of sterile isotonic saline at each time point after blood sampling for compensation of body fluid loss, and the blood loss was also corrected at a definite degree. Plasma was separated by centrifuging the blood samples at 1660× g for 5 min and stored at −20 °C until LC-MS/MS analysis. Data fitting and pharmacokinetic parameter estimates were carried out using non–compartmental analysis via WinNonlin Software (version 6.1, Pharsight Corporation, Mountain View, CA, USA). F was calculated according to the formula: F (%) = (AUC oral/AUC i.v.) × (dose i.v./dose oral) × 100.
The plasma, feces, urine, and bile samples (100 μL) were added to 1 μL of Tris aqueous solution (2 M), 10 μL of IS working solution (2 μg/mL), and 190 μL methanol–acetonitrile (25:75, v/v). The incubation supernatant samples (300 μL) were mixed with 1 μL Tris aqueous solution (2 M) and 10 μL of IS working solution (2 μg/mL). All mixtures were vortexed for 30 s followed by centrifugation at 18,880× g for 5 min, twice.
Briefly, the LC-MS/MS instrument consisted of a 1260 HPLC system (Agilent, Santa Clara, CA, USA) and API4000 triple quadrupole mass spectrometer (Applied Biosystems Sciex, Toronto, ON, Canada) with an electrospray ionization (ESI) source and Analyst software (version 1.5.2, Applied Biosystems Sciex, Toronto, ON, Canada) for data acquisition and processing. DNJ, FGM, DAB, and IS were separated in a Xbridge amide™ column (3.5 μm, 4.6 mm × 150 mm; Waters, Milford, MA, USA) with a gradient mobile phase of acetonitrile-water (0.1% ammonium hydroxide) at a flow rate of 0.7 mL/min. An ESI source was used in the positive ion mode. The optimized mass spectrometric condition was as follows: ion spray voltage, 5500 V; collision gas, 6 psi; curtain gas, 20 psi; ion source gas 1 (GS1), 45 psi; ion source gas 2 (GS2), 45 psi; temperature, 450 °C. The multiple reaction monitoring (MRM) transitions of DNJ, FGM, DAB, and IS were m/z 164.0→110.1 (declustering potential (DP) 50 V, collision energy (CE) 22 V, collision cell exit potential (CXP) 10 V), 148.0→112.1 (DP 66 V, CE 21 V, CXP 10 V), 134.0→98.0 (DP 60 V, CE 20 V, CXP 10 V) and 208.0→146.1 (DP 50 V, CE 27 V, CXP 10 V), respectively.

[2] = Tissue distribution in rats after oral SZ–A; assay type: in vivo; details: Sprague-Dawley, pancreas, rat, SZ–A 40 mg/kg p.o., 0.25, 0.5 and 2 h, n = 3, read-out: tissue to plasma ratio (T/P) in the pancreas
Experimental: Three groups of rats (three rats in each group) were administered with a single oral dose of SZ–A at 40 mg/kg. Rats each were sacrificed and various tissues, including liver, kidney, pancreas, stomach, duodenum, jejunum, ileum, cecum, colon, and the content in the gastrointestinal tract were collected at 0.25, 0.5, and 2 h time points. One additional rat was sacrificed predose to provide control tissues for analysis. After removing blood or content and weighing, each sample was individually homogenized with normal saline solution (1:3, w/v for tissue; 1:9, w/v for content) using a tissue homogenizer (Polytron PT1600E, Kinematica, Luzern, Switzerland) and stored at −20 °C until LC-MS/MS analysis.

[3] = Excretion into urine, feces and bile in rats after oral SZ–A; assay type: in vivo; details: rat, SZ–A 40 mg/kg p.o.
Experimental: Five rats were kept in the metabolic cages with free access to water and food 2 h post dose. Urine was collected before dosing and at 0–4, 4–8, 8–24, 24–36, and 36–48 h, and feces was simultaneously collected before dosing and at 0–24, 24–36, and 36–48 h after oral dosing of SZ–A (40 mg/kg). Feces samples were dried and grinded into powder, then homogenized with normal saline solution (1:9, w/v). Additionally, the bile duct of rats under ether anesthesia were cannulated with a PE-10 tube (Portex Ltd., Kent, UK). Bile was collected before dosing and at 0–1, 1–2, 2–4, 4–6, 6–10, 10–20, 20–24, 24–28, and 28–32 h following oral administration of SZ–A (40 mg/kg). All urine, feces, and bile samples were stored at −20 °C until LC-MS/MS analysis.

[4] = Sprague-Dawley, iv, rat plasma, SZ–A 4 mg/kg i.v., n = 5
[5] = Sprague-Dawley, po, rat plasma, SZ–A 40 mg/kg p.o., n = 5
[6] = Sprague-Dawley, po, rat plasma, SZ–A 200 mg/kg p.o., n = 5
[7] = Sprague-Dawley, po, rat plasma, SZ–A 1000 mg/kg p.o., n = 5
[8] = rat plasma, SZ–A 40 mg/kg p.o., n = 5
[9] = rat plasma, SZ–A 200 mg/kg p.o., n = 5
[10] = rat plasma, SZ–A 1000 mg/kg p.o., n = 5

For OC[C@H]1NC[C@@H](O)[C@@H]1O [DAB, 1,4-dideoxy-1,4-imino-D-arabinitol], which AUC(0-inf) [1, 4] is on record?
The AUC(0-inf) was 129 ± 20.1 ng·h/mL.

What about the AUC(0-t) [1, 4] of the same molecule?
The AUC(0-t) was 124 ± 20.8 ng·h/mL.

What about the Cmax [1, 4] of the same molecule?
The Cmax was 625 ± 183 ng/mL.

And the Tmax [1, 4]?
Its Tmax is 0.033 h.

What about the half-life [1, 4] of the same molecule?
The half-life was 0.18 ± 0.03 h.

What about the clearance ([1]; Sprague-Dawley, iv, rat plasma, SZ–A 4 mg/kg i.v., n = 5, read-out: CLz (converted)) of the same molecule?
Its clearance is 25.6 mL/min/kg.

And the MRT last [1, 4]?
The MRT last was 0.18 ± 0.04 h.

What about the MRT inf [1, 4] of the same molecule?
Its MRT inf is 0.21 ± 0.05 h.

What about the Vd ([1]; Sprague-Dawley, iv, rat plasma, SZ–A 4 mg/kg i.v., n = 5, read-out: Vd) of the same molecule?
The Vd was 0.401 ± 0.0408 L/kg.

What about the bioavailability ([1]; Sprague-Dawley, po, rat, SZ–A 40 mg/kg p.o. vs SZ–A 4 mg/kg i.v.) of the same molecule?
Its bioavailability is 78.2%.

What about the bioavailability ([1]; Sprague-Dawley, po, rat, SZ–A 200 mg/kg p.o. vs SZ–A 4 mg/kg i.v.) of the same molecule?
Its bioavailability is 56.6%.

What about the bioavailability ([1]; Sprague-Dawley, po, rat, SZ–A 1000 mg/kg p.o. vs SZ–A 4 mg/kg i.v.) of the same molecule?
The bioavailability was 40.1%.

And the AUC(0-inf) [1, 5]?
The AUC(0-inf) was 978 ± 140 ng·h/mL.

And the AUC(0-t) [1, 5]?
The AUC(0-t) was 969 ± 147 ng·h/mL.

And the Cmax [1, 5]?
Its Cmax is 708 ± 171 ng/mL.

What about the Tmax [1, 5] of the same molecule?
Its Tmax is 0.67 ± 0.29 h.

And the half-life [1, 5]?
The half-life was 1.22 ± 0.16 h.

What about the MRT last [1, 5] of the same molecule?
The MRT last was 1.32 ± 0.18 h.

What about the MRT inf [1, 5] of the same molecule?
The MRT inf was 1.42 ± 0.25 h.

And the AUC(0-inf) [1, 6]?
The AUC(0-inf) was 3560 ± 729 ng·h/mL.

What about the AUC(0-t) [1, 6] of the same molecule?
Its AUC(0-t) is 3510 ± 716 ng·h/mL.

What about the Cmax [1, 6] of the same molecule?
The Cmax was 2000 ± 656 ng/mL.

What about the Tmax [1, 6] of the same molecule?
Its Tmax is 0.57 ± 0.09 h.

What about the half-life [1, 6] of the same molecule?
The half-life was 1.38 ± 0.23 h.

And the MRT last [1, 6]?
Its MRT last is 1.95 ± 0.35 h.

And the MRT inf [1, 6]?
The MRT inf was 2.09 ± 0.29 h.

What about the AUC(0-inf) [1, 7] of the same molecule?
Its AUC(0-inf) is 12900 ng·h/mL.

What about the AUC(0-t) [1, 7] of the same molecule?
The AUC(0-t) was 12400 ng·h/mL.

And the Tmax [1, 7]?
Its Tmax is 0.47 ± 0.14 h.

What about the half-life [1, 7] of the same molecule?
The half-life was 2.38 ± 0.97 h.

What about the MRT last [1, 7] of the same molecule?
Its MRT last is 4.09 ± 1.19 h.

What about the MRT inf [1, 7] of the same molecule?
Its MRT inf is 4.66 ± 1.52 h.

And the CLz [1, 8]?
Its CLz is 33.188 ± 4.977 mL/min/kg.

And the Vd [1, 8]?
The Vd was 3.5486 ± 0.9901 L/kg.

What about the CLz [1, 9] of the same molecule?
Its CLz is 46.928 ± 9.39 mL/min/kg.

And the Vd [1, 9]?
Its Vd is 5.4724 ± 0.5717 L/kg.

What about the CLz [1, 10] of the same molecule?
The CLz was 65.433 ± 14.71 mL/min/kg.

What about the Vd [1, 10] of the same molecule?
The Vd was 13,892.2 ± 7160.0 mL/kg.

And the “time to reach maximum plasma concentration (Cmax)” value ([1]; rat, after oral administration of SZ–A (40, 200, 1000 mg/kg), upper bound over doses)?
Its value is at most 0.67 h.

And the Kp [2]?
The Kp was 0.09 to 0.59.

What about the dose excreted ([3]; bile, po, within 32 h, read-out: recovery in bile (% of dose)) of the same molecule?
The dose excreted was 0.35%.

What about the “cumulative excretion into feces (% of dose)” value ([3]; over a 24 h period, n = 5) of the same molecule?
The value was 34.05%.

What about the “cumulative excretion into urine (% of dose)” value ([3]; over a 24 h period, n = 5) of the same molecule?
Its value is 52.91%.
